Measurements: patent publication US20150150246A1, “USE OF INSECT GROWTH REGULATORS IN COCKROACH CONTROL” (MCLAUGHLIN GORMLEY KING COMPANY, priority 2013, published 2015)
Read-outs that look alike come from different tables or passages of the source.

Assays:
German cockroach males = settings: cited from earlier work
German cockroaches [1] = settings: male, German cockroach, in vivo, po
Method: Adult male German cockroaches were obtained directly from German cockroach colonies maintained in the laboratory after a brief exposure to CO2 to facilitate handling. Cohorts of similar age (˜11 weeks old), adult male cockroaches (˜300 individuals) were randomly selected and moved into holding containers (Lock&Lock containers, Lock&Lock Co. Ltd., Dallas, Tex., USA) using a pair of soft tissue forceps. Cockroaches were starved in holding containers for 48 hours. Following starvation, cockroaches were transferred into the fecal collection apparatus. The fecal collection apparatus consisted of two vertically connected holding containers (Lock&Lock Co. Ltd., Dallas, Tex., USA) separated by a mesh screen. Cockroaches were introduced into the upper compartment of the collection apparatus and fecal pellets were collected from the floor of the lower container. The floor of the lower container was sealed with aluminum foil to facilitate the removal of fecal pellets. […] Fecal pellets were collected weekly until a sufficient amount of faeces was obtained to achieve analytical quantification. Quantification of pyriproxyfen was made by standard high-performance liquid chromatography-mass spectrometry (HPLC-MS) developed for pyriproxyfen. […]

German cockroaches [2] = experiment: Reproductive inhibition by harborages contaminated with pyriproxyfen-containing fecal pellets (secondary exposure); format: in vivo, German cockroach
cockroaches = experiment: Efficacy of bait at different pyriproxyfen concentrations; settings: in vivo
Method: In one embodiment, the bait comprises abamectin at 0.05% and pyriproxyfen at 0.5% by weight. Efficacy was observed from 0.05 to 1.0% of pyriproxyfen. No higher doses were tested due to physical changes to the matrix, but higher amounts could be used by modifying the matrix. Pyriproxyfen is non-repellent so biologically 1.0% is not an absolute upper concentration limit.

N#Cc1nn(-c2c(Cl)cc(C(F)(F)F)cc2Cl)c(N)c1[S+]([O-])C(F)(F)F (stereo not drawn) [fipronil]
mortality of German cockroach males (German cockroach males; 24-hour post-bait introduction, laboratory studies): 100%

CC(COc1ccc(Oc2ccccc2)cc1)Oc1ccccn1 (stereo not drawn) [pyriproxyfen]
portion of ingested pyriproxyfen present in the frass (German cockroaches [1]): ~60%
suppression of the reproductive output of exposed cockroaches (German cockroaches [2]; consumption of pyriproxyfen contaminated frass (secondary exposure)): 100%
suppression of reproductive maturation (German cockroaches [2]; fecal pellets deposited following consumption of pyriproxyfen): 100%
repellency (cockroaches): non-repellent

abamectin
mortality of German cockroach males (German cockroach males; in 5 days, same conditions): 100%
